US10722514B2 (FLX Bio, Inc., priority 2017, dated 2020)
Where a name gives a salt, the structure may show the parent alone.

What follows are molecules tested against T1, recombinant full-length USP7 (Homo sapiens, UniProt Q93009) (assay: USP7-mediated ubiquitin-rhodamine cleavage assay). Conditions: recombinant full-length USP7 62 pM; ubiquitin-rhodamine 100 nM; 30-minute incubation with compound, 1 hour reaction at room temperature; read-out: Potency: USP7 IC50.
T1 construct: A 25 μl reaction volume containing recombinant full-length USP7 (62 pM)
T1 sequence (Q93009 whole entry): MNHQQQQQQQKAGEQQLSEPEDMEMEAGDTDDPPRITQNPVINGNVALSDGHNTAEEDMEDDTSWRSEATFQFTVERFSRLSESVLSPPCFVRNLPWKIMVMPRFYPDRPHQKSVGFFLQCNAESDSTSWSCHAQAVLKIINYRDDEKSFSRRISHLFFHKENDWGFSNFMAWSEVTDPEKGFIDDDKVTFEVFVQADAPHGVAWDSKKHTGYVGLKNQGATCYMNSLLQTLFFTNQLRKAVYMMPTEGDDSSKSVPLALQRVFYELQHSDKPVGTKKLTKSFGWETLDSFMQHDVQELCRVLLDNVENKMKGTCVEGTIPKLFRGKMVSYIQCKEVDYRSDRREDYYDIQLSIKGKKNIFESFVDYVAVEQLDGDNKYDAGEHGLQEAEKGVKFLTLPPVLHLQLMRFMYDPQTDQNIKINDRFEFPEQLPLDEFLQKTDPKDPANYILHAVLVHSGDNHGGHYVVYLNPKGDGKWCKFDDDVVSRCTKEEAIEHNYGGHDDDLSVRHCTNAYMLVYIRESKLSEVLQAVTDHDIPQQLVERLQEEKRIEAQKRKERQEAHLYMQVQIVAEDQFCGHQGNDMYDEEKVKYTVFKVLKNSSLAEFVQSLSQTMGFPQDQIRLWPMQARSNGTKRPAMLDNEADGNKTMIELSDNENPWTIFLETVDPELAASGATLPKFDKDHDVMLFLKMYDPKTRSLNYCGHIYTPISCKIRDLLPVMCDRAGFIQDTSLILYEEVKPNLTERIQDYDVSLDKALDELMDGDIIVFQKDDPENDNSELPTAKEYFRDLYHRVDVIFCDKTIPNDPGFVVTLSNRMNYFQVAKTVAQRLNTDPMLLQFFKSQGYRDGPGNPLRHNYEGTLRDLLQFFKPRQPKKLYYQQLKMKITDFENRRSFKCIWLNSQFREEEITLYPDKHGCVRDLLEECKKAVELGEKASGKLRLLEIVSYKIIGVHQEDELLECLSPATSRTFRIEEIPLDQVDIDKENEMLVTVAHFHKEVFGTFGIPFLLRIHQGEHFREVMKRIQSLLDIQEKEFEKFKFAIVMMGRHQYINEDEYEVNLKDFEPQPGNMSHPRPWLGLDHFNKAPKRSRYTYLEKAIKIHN
Assay type: biochemical
Summary of the method: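 USP7 (62 pM) in 20 mM HEPES pH 7.3, 150 mM NaCl, 1 mM TCEP, 125 μg/ml BSA was preincubated with compound (1% DMSO) for 30 min at room temperature. Ubiquitin-rhodamine (100 nM final) was then added for 1 hour, the reaction stopped with acetic acid, and fluorescence read; IC50 from 4-parameter fit.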

IC50 [nM]	Molecule
< 1000	Cc1cc(Cl)cc(-c2ccnc3cc([C@H](C)N4C(=O)CCC4=O)sc23)c1O[C@@H]1CCNC[C@H]1F [Example 289, 1-[(1S)-1-[7-[5-chloro-2-[[(3R,4R)-3-fluoro-4-piperidyl]oxy]-3-methyl-phenyl]thieno[3,2-b]pyridin-2-yl]ethyl]pyrrolidine-2,5-dione; 2,2,2-trifluoroacetic acid]
< 1000	Cc1cc(Cl)cc(-c2ccnc3cc(Cn4c(=O)ccn(C5COC5)c4=O)sc23)c1O[C@H]1CCCNC1 [Example 5, (S)-3-((7-(5-Chloro-3-methyl-2-(piperidin-3-yloxy)phenyl)thieno[3,2-b]pyridin-2-yl)methyl)-1-(oxetan-3-yl)pyrimidine-2,4(1H,3H)-dione]
10000 to 30000	Cc1cc(Cl)cc(-c2ccnc3cc(CO)sc23)c1O[C@@H]1CN[C@@H](C)C1 [Example 60, (7-(5-Chloro-3-methyl-2-(((3S,5S)-5-methylpyrrolidin-3-yl)oxy)phenyl)thieno[3,2-b]pyridin-2-yl)methanol]
10000 to 30000	CC(Oc1ccc(Cl)cc1-c1ccnc2cc(CO)sc12)C1CNC1 (stereo not drawn) [Example 42, (7-(2-(1-(Azetidin-3-yl)ethoxy)-5-chlorophenyl)thieno[3,2-b]pyridin-2-yl)methanol]
1000 to 10000	COc1ccc(C(=O)O)cc1-c1ccnc2cc(Cn3c(=O)ccn(CC(F)(F)F)c3=O)sc12 [Example 290, 3-[2-[[2,6-dioxo-3-(2,2,2-trifluoroethyl)pyrimidin-1-yl]methyl]thieno[3,2-b]pyridin-7-yl]-4-methoxy-benzoic acid]
1000 to 10000	Cc1cc(Cl)cc(-c2ncnc3cc(CN4C(=O)CCCC4=O)sc23)c1OC1CCNCC1 [Example 259, 1-((4-(5-Chloro-3-methyl-2-(piperidin-4-yloxy)phenyl)thieno[3,2-d]pyrimidin-6-yl)methyl)piperidine-2,6-dione]
< 1000	Cc1cc(Cl)cc(-c2ccnc3cc(CN4C(=O)C5CC5C4=O)sc23)c1OC1CCNCC1 (stereo not drawn) [Example 233, 3-((7-(5-Chloro-3-methyl-2-(piperidin-4-yloxy)phenyl)thieno[3,2-b]pyridin-2-yl)methyl)-3-azabicyclo[3.1.0]hexane-2,4-dione]
< 1000	Cc1cc(Cl)cc(-c2ncnc3cc(CN4C(=O)C5C(C4=O)C5(C)C)sc23)c1OC1CCNC1(C)C (stereo not drawn) [Example 370, 3-[[4-[5-chloro-2-(2,2-dimethylpyrrolidin-3-yl)oxy-3-methyl-phenyl]thieno[3,2-d]pyrimidin-6-yl]methyl]-6,6-dimethyl-3-azabicyclo[3.1.0]hexane-2,4-dione]
< 1000	3-((7-(5-Chloro-2-(((3S,4R)-4-fluoropiperidin-3-yl)oxy)-3-methyphenyl)thien[3,2-b]pyridin-2-yl)methyl)-1-(2,2,2-trifluoroethyl)pyrimidine-2,4(1H,3H)-dione [Example 4]
< 1000	Cc1cc(Cl)cc(-c2ccnc3cc(CN4C(=O)C5C(C4=O)C5(C)C)sc23)c1O[C@@H]1CCNC[C@@H]1F (stereo partly drawn) [Example 382, 3-[[7-[5-chloro-2-[[(3S,4R)-3-fluoro-4-piperidyl]oxy]-3-methyl-phenyl]thieno[3,2-b]pyridin-2-yl]methyl]-6,6-dimethyl-3-azabicyclo[3.1.0]hexane-2,4-dione; 2,2,2-trifluoroacetic acid]
< 1000	Cc1cc(Cl)cc(-c2ccnc3cc(CN4C(=O)CCC4=O)sc23)c1O[C@@H]1CC[C@@H](N)C1 [Example 126, 1-((7-(2-(((1R,3R)-3-Aminocyclopentyl)oxy)-5-chloro-3-methylphenyl)thieno[3,2-b]pyridin-2-yl)methyl)pyrrolidine-2,5-dione]
1000 to 10000	OCc1cc2nccc(-c3cc(Cl)ccc3OCC3CNC3)c2s1 [Example 29, (7-(2-(Azetidin-3-ylmethoxy)-5-chlorophenyl)thieno[3,2-b]pyridin-2-yl)methanol]

Molecule	IC50 [nM]
Cc1cc(Cl)cc(-c2ccnc3cc(Cn4c(=O)ccn(CC(F)(F)F)c4=O)sc23)c1O[C@H]1C[C@H](N2CCOCC2)C1 [Example 278, 3-((7-(5-Chloro-3-methyl-2-((1r,3r)-3-morpholinocyclobutoxy)phenyl)thieno[3,2-b]pyridin-2-yl)methyl)-1-(2,2,2-trifluoroethyl)pyrimidine-2,4(1H,3H)-dione]	< 1000
3-[[7-[5-chloro-3-methyl-2-[[(3S,6S)-6-methyl-3-piperidyl]oxy]phenyl]thieno[3,2-b]pyridin-2-yl]methyl]-6,6-dimethyl-3-azabicyclo[3.1.0]hexane-2,4-dione; 2,2,2-tirfluoroacetic acid [Example 304]	< 1000

Same assay, conditions: recombinant full-length USP7 62 pM; ubiquitin-rhodamine 100 nM; 30-minute pre-incubation, 1 hour reaction at room temperature; read-out: Potency (USP7 IC50)

IC50 [nM]	Molecule
< 1000	Cc1cc(Cl)cc(-c2ccnc3cc(Cn4c(=O)ccn(CC(F)(F)F)c4=O)sc23)c1O[C@@H]1CCNC[C@@H]1C [Example 549, 3-[[7-[5-chloro-3-methyl-2-[[(3S,4R)-3-methyl-4-piperidyl]oxy]phenyl]thieno[3,2-b]pyridin-2-yl]methyl]-1-(2,2,2-trifluoroethyl)pyrimidine-2,4-dione]
< 1000	CCN1C[C@H](F)[C@H](Oc2c(C)cc(Cl)cc2-c2ccnc3cc(Cn4c(=O)ccn(C)c4=O)sc23)C1 [Example 459, 3-[[7-[5-chloro-2-[(3R,4S)-1-ethyl-4-fluoro-pyrrolidin-3-yl]oxy-3-methyl-phenyl]thieno[3,2-b]pyridin-2-yl]methyl]-1-methyl-pyrimidine-2,4-dione; 2,2,2-trifluoroacetic acid]
< 1000	Cc1cc(Cl)cc(-c2ccnc3cc(Cn4c(=O)ccn(CC(F)(F)F)c4=O)sc23)c1O[C@@H]1CNC[C@@H]1C [Example 566, 3-[[7-[5-chloro-3-methyl-2-[(3S,4S)-4-methylpyrrolidin-3-yl]oxy-phenyl]thieno[3,2-b]pyridin-2-yl]methyl]-1-(2,2,2-trifluoroethyl)pyrimidine-2,4-dione]
< 1000	Cc1cc(Cl)cc(-c2ccnc3cc(Cn4c(=O)ccn(CC(F)(F)F)c4=O)sc23)c1O[C@@H]1C=C[C@@H](N)C1 [Example 630, 3-[[7-[2-[(1S,4S)-4-aminocyclopent-2-en-1-yl]oxy-5-chloro-3-methyl-phenyl]thieno[3,2-b]pyridin-2-yl]methyl]-1-(2,2,2-trifluoroethyl)pyrimidine-2,4-dione]
< 1000	Cc1cc(Cl)cc(-c2ccnc3cc(Cn4c(=O)ccn(CCC(F)(F)F)c4=O)sc23)c1O[C@H]1CCCNC1 [Example 583, 3-[[7-[5-chloro-3-methyl-2-[[(3S)-3-piperidyl]oxy]phenyl]thieno[3,2-b]pyridin-2-yl]methyl]-1-(3,3,3-trifluoropropyl)pyrimidine-2,4-dione]
< 1000	CC(=O)N1CC[C@@H](Oc2c(C)cc(Cl)cc2-c2ccnc3cc(Cn4c(=O)ccn(CC(F)(F)F)c4=O)sc23)[C@@H](C)C1 [Example 607, 3-[[7-[2-[[(3S,4R)-1-acetyl-3-methyl-4-piperidyl]oxy]-5-chloro-3-methyl-phenyl]thineo[3,2-b]pyridin-2-yl]methyl]-1-(2,2,2-trifluoroethyl)pyrimidine-2,4-dione]
< 1000	O=C1CCC(=O)N1Cc1cc2nccc(-c3cc(Cl)cc(C(F)F)c3OC3CCNCC3)c2s1 [Example 431, 1-[[7-[5-chloro-3-(difluoromethyl)-2-(4-piperidyloxy)phenyl]thieno[3,2-b]pyridin-2-yl]methyl]pyrrolidine-2,5-dione dihydrochloride]
< 1000	Cc1cc(Cl)cc(-c2ccnc3cc(Cn4c(=O)ccn(C)c4=O)sc23)c1O[C@H]1CCN(CCO)C[C@@H]1F [Example 483, 3-[[7-[5-chloro-2-[[(3S,4S)-3-fluoro-1-(2-hydroxyethyl)-4-piperidyl]oxy]-3-methyl-phenyl]thieno[3,2-b]pyridin-2-yl]methyl]-1-methyl-pyrimidine-2,4-dione; 2,2,2-trifluoroacetic acid]
< 1000	Cc1cc(Cl)cc(-c2ccnc3cc(Cn4c(=O)ccn(C)c4=O)sc23)c1OC1CNCCC1(F)F (stereo not drawn) [Example 514, 3-[[7-[5-chloro-2-[(4,4-difluoro-3-piperidyl)oxy]-3-methyl-phenyl]thieno[3,2-b]pyridin-2-yl]methyl]-1-methyl-pyrimidine-2,4-dione; 2,2,2-trifluoroacetic acid]
< 1000	Cc1cc(Cl)cc(-c2ccnc3cc(Cn4c(=O)ccn(CC(F)(F)F)c4=O)sc23)c1O[C@H]1CNC[C@H]1C [Example 626, 3-[[7-[5-chloro-3-methyl-2-[(3R,4R)-4-methylpyrrolidin-3-yl]oxy-phenyl]thieno[3,2-b]pyridin-2-yl]methyl]-1-(2,2,2-trifluoroethyl)pyrimidine-2,4-dione]
< 1000	Cc1cc(Cl)cc(-c2ccnc3cc(Cn4c(=O)ccn(CC(F)(F)F)c4=O)sc23)c1OC1CCNCC12CC2 (stereo not drawn) [Example 617, 3-[[7-[2-(5-azaspiro[2.5]octan-8-yloxy)-5-chloro-3-methyl-phenyl]thieno[3,2-b]pyridin-2-yl]methyl]-1-(2,2,2-trifluoroethyl)pyrimidine-2,4-dione; 2,2,2-trifluoroacetic acid]
< 1000	CCn1ccc(=O)n(Cc2cc3nccc(-c4cc(Cl)cc(C)c4O[C@H]4CCCNC4)c3s2)c1=O [Example 423, 3-[[7-[5-chloro-3-methyl-2-[[(3S)-3-piperidyl]oxy]phenyl]thieno[3,2-b]pyridin-2-yl]methyl]-1-ethyl-pyrimidine-2,4-dione]

Molecule	IC50 [nM]
Cc1cc(Cl)cc(-c2ccnc3cc(Cn4c(=O)ccn(C)c4=O)sc23)c1O[C@@H]1CC[C@@H](NCCO)C1 [Example 531, 3-[[7-[5-chloro-2-[(1R,3R)-3-(2-hydroxyethylamino)cyclopentoxy]-3-methyl-phenyl]thieno[3,2-b]pyridin-2-yl]methyl]-1-methyl-pyrimidine-2,4-dione; 2,2,2-trifluoroacetic acid]	< 1000
